Assay results reported in ChEMBL document CHEMBL6182912, “Development of Novel Phthalazinone-Triazole Hybrids as Potential Antidiabetic Agents Targeting GLUT4 Translocation in Skeletal Muscle” (J Med Chem, 2025).
Calls of active or inactive are those of the source. The calls are words filed in the database; no cut-off is given here.

Assays:
[1] = molecular target: T1, Solute carrier family 2, facilitated glucose transporter member 4 (Rattus norvegicus) (UniProt P19357); assay: Modulation of GLUT4 translocation in rat L6-GLUT4myc skeletal muscle cells assessed as increase in surface GLUT4myc level by measuring fold stimulation at 10 uM measured after 16 hrs by O-phenylenediamine assay relative to control; type: cell-based; conditions: filed as modulator
T1 sequence (whole entry): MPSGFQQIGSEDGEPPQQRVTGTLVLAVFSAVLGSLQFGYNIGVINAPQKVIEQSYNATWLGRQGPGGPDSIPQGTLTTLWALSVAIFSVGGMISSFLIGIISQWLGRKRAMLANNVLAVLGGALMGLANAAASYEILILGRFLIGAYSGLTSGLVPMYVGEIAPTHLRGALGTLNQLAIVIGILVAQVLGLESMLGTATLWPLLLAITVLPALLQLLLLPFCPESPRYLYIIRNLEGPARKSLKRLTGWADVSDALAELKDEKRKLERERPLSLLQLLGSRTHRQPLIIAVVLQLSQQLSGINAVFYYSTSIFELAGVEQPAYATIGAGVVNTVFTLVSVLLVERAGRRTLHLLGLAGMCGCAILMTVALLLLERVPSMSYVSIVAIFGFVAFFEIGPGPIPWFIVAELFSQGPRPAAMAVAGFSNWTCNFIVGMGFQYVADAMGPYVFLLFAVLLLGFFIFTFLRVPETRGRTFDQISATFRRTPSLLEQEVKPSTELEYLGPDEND

L6-GLUT4myc [2] = assay: Effect on AKT2 mRNA level in rat L6-GLUT4myc at 10 uM incubated for 16 hrs by RT-PCR analysis; type: functional, cell-based
[3] = Stability in SGF at pH 1.2 assessed as compound remaining measured after 120 mins by UPLC analysis; type: physicochemical; conditions: read-out: Stability
[4] = molecular target: T1, Solute carrier family 2, facilitated glucose transporter member 4 (Rattus norvegicus); assay: Modulation of insulin-stimulated GLUT4 translocation in rat L6-GLUT4myc skeletal muscle cells assessed as increase in AKT phosphorylation Ser473 at 10 uM pretreated with compound and wortmannin for 16 hrs followed by insulin addition measured after 10 mins by Western blot analysis; type: cell-based; conditions: time 970.0 min
Rattus norvegicus [5] = assay: Anti-hyperglycemic effect in STZ-induced diabetic male Sprague-Dawley rat assessed as reduction in blood glucose level at 100 mg/kg, po; type: functional, organism-based; conditions: time 30-300 min
[6] = Stability in SIF at pH 6.8 assessed as compound remaining measured after 120 mins by UPLC analysis; type: physicochemical; conditions: read-out: Stability
[7] = Stability in rat plasma assessed as compound remaining measured after 120 mins by UPLC analysis; type: ADME, cell-free; conditions: read-out: Stability
[8] = molecular target: T1, Solute carrier family 2, facilitated glucose transporter member 4 (Rattus norvegicus); assay: Modulation of GLUT4 translocation in rat L6-GLUT4myc skeletal muscle cells assessed as increase in GLUT4 mRNA level at 10 uM incubated for 16 hrs by RT-PCR analysis; type: cell-based; conditions: filed as modulator
[9] = molecular target: T1, Solute carrier family 2, facilitated glucose transporter member 4 (Rattus norvegicus); assay: (§1) Modulation of insulin-stimulated GLUT4 translocation in rat L6-GLUT4myc skeletal muscle cells assessed as increase in surface GLUT4myc level at 10 uM pretreated with compound and wortmannin for 16 hrs and cultured final 3 hrs of compound treatment in serum-starved medium followed by insulin addition measured after 20 mins by O-phenylenediamine assay; type: cell-based; conditions: time 980.0 min
[10] = molecular target: T1, Solute carrier family 2, facilitated glucose transporter member 4 (Rattus norvegicus); assay: Modulation of insulin-stimulated GLUT4 translocation in rat L6-GLUT4myc skeletal muscle cells assessed as increase in AKT phosphorylation Ser473 at 10 uM pretreated with compound for 16 hrs followed by insulin addition measured after 10 mins by Western blot analysis; type: cell-based; conditions: filed as modulator, time 970.0 min
[11] = molecular target: T1, Solute carrier family 2, facilitated glucose transporter member 4 (Rattus norvegicus); assay: as §1, with “overnight” for “and wortmannin for 16 hrs”; type: cell-based; conditions: filed as modulator
[12] = Stability in SPF at pH 7.4 assessed as compound remaining measured after 120 mins by UPLC analysis; type: physicochemical; conditions: read-out: Stability
Rattus norvegicus [13] = assay: Anti-hyperglycemic effect in STZ-induced diabetic male Sprague-Dawley rat assessed as reduction in blood glucose level at 100 mg/kg, po measured after 5 hrs relative to control; type: functional; parameters: scale not given: the % may be the effect or the level left
L6-GLUT4myc [14] = assay: Effect on IRS1 mRNA level in rat L6-GLUT4myc at 10 uM incubated for 16 hrs by RT-PCR analysis; type: functional, cell-based
[15] = molecular target: T1, Solute carrier family 2, facilitated glucose transporter member 4 (Rattus norvegicus); assay: Modulation of GLUT4 translocation in rat L6-GLUT4myc skeletal muscle cells assessed as increase in AMPK-alpha phosphorylation at Thr172 at 10 uM incubated for 16 hrs by Western blot analysis; type: cell-based; conditions: filed as modulator
[16] = molecular target: T1, Solute carrier family 2, facilitated glucose transporter member 4 (Rattus norvegicus); assay: Modulation of GLUT4 translocation in rat L6-GLUT4myc skeletal muscle cells assessed as increase in surface GLUT4myc level measured after 16 hrs by O-phenylenediamine assay; type: cell-based; conditions: filed as modulator, dose 5-25 µM
[17] = molecular target: T1, Solute carrier family 2, facilitated glucose transporter member 4 (Rattus norvegicus); assay: Modulation of GLUT4 translocation in rat L6-GLUT4myc skeletal muscle cells assessed as increase in surface GLUT4myc level by measuring fold stimulation at 500 uM measured after 16 hrs by O-phenylenediamine assay relative to control; type: cell-based; conditions: filed as modulator
Rattus norvegicus [18] = assay: Anti-hyperglycemic effect in STZ-induced diabetic male Sprague-Dawley rat assessed as reduction in blood glucose level at 300 mg/kg, po measured after 5 hrs relative to control; type: functional; parameters: scale not given: the % may be the effect or the level left
[19] = molecular target: T1, Solute carrier family 2, facilitated glucose transporter member 4 (Rattus norvegicus); assay: Modulation of GLUT4 translocation in rat L6-GLUT4myc skeletal muscle cells assessed as increase in surface GLUT4myc level by measuring fold stimulation at 1 mM measured after 1 hr by O-phenylenediamine assay relative to control; type: cell-based; conditions: filed as modulator
[20] = molecular target: T1, Solute carrier family 2, facilitated glucose transporter member 4 (Rattus norvegicus); assay: as §1, with “50 nM” for “10 uM”, “compound” for “compound and wortmannin”; type: cell-based; conditions: time 980.0 min
[21] = molecular target: T1, Solute carrier family 2, facilitated glucose transporter member 4 (Rattus norvegicus); assay: Modulation of insulin-stimulated GLUT4 translocation in rat L6-GLUT4myc skeletal muscle cells assessed as increase in AKT phosphorylation Ser473 pretreated with compound for 16 hrs followed by insulin addition measured after 10 mins by Western blot analysis; type: cell-based; conditions: time 970.0 min

SMILES	fold change (FC) [1]	further results
O=C(NCc1cn(-c2ccc(C(F)(F)F)cc2)nn1)c1cc(Cc2n[nH]c(=O)c3ccccc23)ccc1F	1.77	–
O=C(NCc1cn(-c2ccc(Cl)cc2)nn1)c1ccc(Cc2n[nH]c(=O)c3ccccc23)cc1	1.09	–
O=C(NCc1cn(-c2ccccc2)nn1)c1cc(Cc2n[nH]c(=O)c3ccccc23)ccc1F	1.93	Activity (L6-GLUT4myc [2]): No effect; remaining at 2 h [3]: ≤ 60%; Activity [4]: inactive; Activity (Rattus norvegicus [5]): Time-dependent-effect; remaining at 2 h [6]: ≤ 60%; remaining at 2 h [7]: ≤ 60%; Activity [8]: Active; Activity [9]: inactive; Activity [10]: Active; Activity [11]: Active; remaining at 2 h [12]: ≤ 60%; Activity (Rattus norvegicus [13]): ~38.7%; Activity (L6-GLUT4myc [14]): No effect; Activity [15]: Active; Activity [16]: Dose-dependent-effect
O=C(NCc1cn(-c2ccc(Cl)c(Cl)c2)nn1)c1cc(Cc2n[nH]c(=O)c3ccccc23)ccc1F	1.49	–
COc1ccc(-n2cc(CNC(=O)c3ccc(Cc4n[nH]c(=O)c5ccccc45)cc3)nn2)cc1	1.12	–
O=C(NCc1cn(-c2ccc(F)cc2F)nn1)c1cc(Cc2n[nH]c(=O)c3ccccc23)ccc1F	1.75	–
CC(C)c1ccc(-n2cc(CNC(=O)c3cc(Cc4n[nH]c(=O)c5ccccc45)ccc3F)nn2)cc1	1.1	–
O=C(NCc1cn(-c2cccc(F)c2)nn1)c1cc(Cc2n[nH]c(=O)c3ccccc23)ccc1F	0.84	–
O=C(OCc1cn(-c2ccc(F)cc2)nn1)c1ccc(Cc2n[nH]c(=O)c3ccccc23)cc1	0.99	–
O=C(OCc1cn(-c2ccc(F)cc2)nn1)c1cc(Cc2n[nH]c(=O)c3ccccc23)ccc1F	1.03	–
O=C(NCc1cn(-c2ccccc2F)nn1)c1cc(Cc2n[nH]c(=O)c3ccccc23)ccc1F	0.86	–
O=C(OCc1cn(-c2ccc(Br)cc2)nn1)c1ccc(Cc2n[nH]c(=O)c3ccccc23)cc1	1.54	–
O=C(NCc1cn(-c2ccc(F)cc2)nn1)c1ccc(Cc2n[nH]c(=O)c3ccccc23)cc1	1.11	–
COc1cccc(-n2cc(CNC(=O)c3cc(Cc4n[nH]c(=O)c5ccccc45)ccc3F)nn2)c1	1.4	–
O=C(NCc1cn(-c2ccc(Cl)cc2)nn1)c1cc(Cc2n[nH]c(=O)c3ccccc23)ccc1F	1.53	–
O=C(OCc1cn(-c2ccc(Br)cc2)nn1)c1cc(Cc2n[nH]c(=O)c3ccccc23)ccc1F	1.39	–
Cc1ccc(-n2cc(CNC(=O)c3ccc(Cc4n[nH]c(=O)c5ccccc45)cc3)nn2)cc1	0.77	–
O=C(OCc1cn(-c2ccccc2)nn1)c1cc(Cc2n[nH]c(=O)c3ccccc23)ccc1F	–	fold change (FC) [17]: 0.97
O=C(NCc1cn(-c2ccc(Br)cc2)nn1)c1cc(Cc2n[nH]c(=O)c3ccccc23)ccc1F	1.87	–
COc1cc(-n2cc(CNC(=O)c3cc(Cc4n[nH]c(=O)c5ccccc45)ccc3F)nn2)cc(OC)c1OC	1.08	–
C#CCNC(=O)c1ccc(Cc2n[nH]c(=O)c3ccccc23)cc1	1.17	–

SMILES	fold change (FC) [1]	further results
O=C(NCc1cn(-c2ccc(Br)cc2)nn1)c1ccc(Cc2n[nH]c(=O)c3ccccc23)cc1	0.89	–
CC(C)c1ccc(-n2cc(COC(=O)c3cc(Cc4n[nH]c(=O)c5ccccc45)ccc3F)nn2)cc1	1.52	–
Cc1ccc(-n2cc(CNC(=O)c3cc(Cc4n[nH]c(=O)c5ccccc45)ccc3F)nn2)cc1	1.92	Activity [16]: Dose-dependent-effect
COc1cccc(Cl)c1-n1cc(CNC(=O)c2cc(Cc3n[nH]c(=O)c4ccccc34)ccc2F)nn1	1.14	–
O=C(OCc1cn(-c2ccccc2)nn1)c1ccc(Cc2n[nH]c(=O)c3ccccc23)cc1	0.94	–
Cc1ccc(-n2cc(COC(=O)c3ccc(Cc4n[nH]c(=O)c5ccccc45)cc3)nn2)cc1	0.9	–
COc1ccc(-n2cc(CNC(=O)c3cc(Cc4n[nH]c(=O)c5ccccc45)ccc3F)nn2)cc1	1.92	Activity [16]: Dose-dependent-effect
CN(C)C(=N)NC(=N)N [METFORMIN]	–	Activity (Rattus norvegicus [18]): 64.7%; fold change (FC) [17]: 1.65
O=C(NCc1cn(-c2ccccc2)nn1)c1ccc(Cc2n[nH]c(=O)c3ccccc23)cc1F	1.36	–
COc1ccc(-n2cc(COC(=O)c3cc(Cc4n[nH]c(=O)c5ccccc45)ccc3F)nn2)cc1	1.31	–
NC(=O)c1ncn([C@@H]2O[C@H](CO)[C@@H](O)[C@H]2O)c1N	–	fold change (FC) [19]: 1.56
O=C(NCc1cn(-c2ccc(OC(F)(F)F)cc2)nn1)c1cc(Cc2n[nH]c(=O)c3ccccc23)ccc1F	1.59	–
COc1ccc(OC)c(-n2cc(CNC(=O)c3cc(Cc4n[nH]c(=O)c5ccccc45)ccc3F)nn2)c1	1.29	–
COc1ccccc1-n1cc(CNC(=O)c2cc(Cc3n[nH]c(=O)c4ccccc34)ccc2F)nn1	1.01	–
O=C(NCc1cn(-c2ccc(F)cc2)nn1)c1cc(Cc2n[nH]c(=O)c3ccccc23)ccc1F	1.98	–
O=C(NCc1cn(-c2cccc3ccccc23)nn1)c1cc(Cc2n[nH]c(=O)c3ccccc23)ccc1F	1.15	–
Cc1ccc(-n2cc(COC(=O)c3cc(Cc4n[nH]c(=O)c5ccccc45)ccc3F)nn2)cc1	0.98	–
O=C(NCc1cn(-c2ccc(OC(F)(F)F)cc2)nn1)c1ccc(Cc2n[nH]c(=O)c3ccccc23)cc1	1.04	–
O=C(NCc1cn(-c2ccccc2)nn1)c1ccc(Cc2n[nH]c(=O)c3ccccc23)cc1	1.48	–
COc1cccc(OC)c1-n1cc(CNC(=O)c2cc(Cc3n[nH]c(=O)c4ccccc34)ccc2F)nn1	1.31	–
COC[C@H]1OC(=O)c2coc3c2[C@@]1(C)C1=C(C3=O)[C@@H]2CCC(=O)[C@@]2(C)C[C@H]1OC(C)=O	–	Activity [20]: inactive; Activity [21]: inactive
